Measured values: patent US20260265538A1, “Aqueous Industrial Product Stabilized Against Microbial Contamination” (Thor GmbH, priority 2023, published 2026)
Where a name gives a salt, the structure may show the parent alone.

Test system: Bacteria mixture 1 (Pseudomonas genus)
Assay: Repetitive stress test of paints with bacteria mixture 1, semiquantitative evaluation (examples 2 and 3)
Assay type: cell-based
From the text: Paints 1 to 3 were mixed and homogenized with various concentrations of the guanidinium salts to be tested.
The batches obtained of the paint thus prepared were inoculated repeatedly with a mixture of different wild-type bacterial strains that are of practical relevance with regard to contamination. These bacteria had previously been isolated from commercial emulsion paints containing conventional preservatives (bacteria mixture 1, Pseudomonas genus), which are microbially contaminated in practice, and commercial so-called preservative-free alkaline emulsion paints (bacteria mixture 2, alkaliphilic bacteria of the Nesterenkonia & Alkalibacterium genus), which are microbially contaminated in practice.
• Pseudomonas spp. (Pseudomonas oleovorans group) DSM 33933 • Pseudomonas aeruginosa DSM 33935 • Pseudomonas oleovorans DSM 33936 • Pseudomonas putida DSM 33937 • Pseudomonas aeruginosa DSM 33938
The inoculum was added to the respective sample in each inoculation at 2% (v/w) as a fresh cell suspension in a physiological saline solution (0.9% NaCl). The cell count of the added inoculum in example 1 was 10^5/ml, in examples 2 to 5 10^9/ml, and in example 6 10^6/ml, each in equal portions consisting of the individual bacterial strains. The cell suspension was produced by growing the individual bacteria at 30° C. for 24 h in liquid culture on a shaker. The medium used to grow the bacteria from bacteria mixture 1 was Müller-Hinton liquid medium. Bacteria from bacteria mixture 2 were grown in Müller-Hinton liquid medium that had been adjusted to pH 9.5-9.7 with an alkaline buffer solution beforehand. After growing, the individual liquid cultures were centrifuged, and the cells were resuspended in physiological saline solution. In order to adjust the mixture to the desired cell count, the individual bacteria suspensions, if necessary, were diluted accordingly before being combined with saline solution. The cell count of the inoculum was determined in each case by chamber counting.
In examples 2 to 6, what is called a repetitive stress test with bacteria was conducted by inoculating the samples at particular time intervals repeatedly with a bacteria suspension having a cell count of 10^9/ml (2% v/w) and monitoring the evolution of the bacteria by a semiquantitative evaluation method. After each inoculation, the samples were incubated at 30° C. for 6 days (bacteria mixture 1 and 3) or 7 and 14 days (bacteria mixture 2), and after these periods bacterial infestation was evaluated semiquantitatively in each case. For this purpose, an aliquot was taken from each sample after homogenization using a sterile plastic inoculation loop (10 μl) and streaked evenly on agar plates (bacteria mixture 1 and 3 on tryptic soy agar, bacteria mixture 2 on DSMZ 31 alkaline nutrient agar). The streaked agar plates were then incubated at 30° C. for 48 h (bacteria mixture 1 and 3) or 5 to 7 days (bacteria mixture 2). After incubation, the bacterial colonies grown on the agar plates were visually evaluated and quantified according to the following scheme:
A total of 3 inoculation cycles was performed in each repetitive stress test.
Inoculation 2% (w/v) with Bacteria Mixture 1, 10^9 CFU/ml
2% (w/v) Inoculation with Bacteria Mixture 1, […]

Measured: Stabilization of the paint against microbial infestation

N=C(N)N [guanidine hydrochloride]
distinct stabilization: table 2, addition of 0.25% by weight to paint 1 having a pH of pH 8.5 | table 2, addition of 0.25% by weight to paint 2 having a pH of 9.0 | table 3, paint 1, pH of 7.5, addition of 0.8% by weight | table 3, paint 2, pH of pH 7.6, addition of 0.8% by weight
